From ChEMBL document CHEMBL1201862, “PubChem BioAssay data set” (2004) come the findings set out here.

Some test systems named below: NCI-H522; KM12; T47D; OVCAR-8; HOP-92; SN12C; HOP-62; MDA-N; SK-OV-3; SW-620; HL-60; LOX IMVI; NCI-H23; HT-29; U-251; NCI-H460; EKVX; SR; HCT-15; SK-MEL-28.
Experiment in all cases: NCI tumour cell line growth inhibition, 48 h

The structures appear in SMILES notation.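 96-well plates; 48 h exposure; 5 concentrations. Endpoints by linear interpolation between flanking doses. Not reached: highest tested concentration assigned. The concentration for 50% growth inhibition is given as GI50.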 Active and inactive are the calls of the source. Rule as the data show it: active = GI50 up to about 1.1 µM and inactive = higher.

For the molecule `CC[C@@]1(OP(=O)(O)O)C(=O)OCc2c1cc1n(c2=O)Cc2cc3ccccc3nc2-1`, the GI50 in the assay on NCI-H522 was 0.286 µM (active); in the assay on KM12, 0.398 µM (active); in the assay with T47D, 0.132 µM (active); with OVCAR-8, 0.224 µM (active); in the assay with HOP-92 it was 0.447 µM (active); in the assay with SN12C it was 0.0883 µM (active). Besides, the GI50 in the assay with HOP-62 was 0.253 µM (active); in the assay on MDA-N, 0.537 µM (active); in the assay with SK-OV-3, 0.342 µM (active); in the assay with SW-620, 403 nM (active); in the assay with HL-60, 0.0306 µM (active); with LOX IMVI, 39.1 nM (active). The GI50 with NCI-H23 is 0.0608 µM (active); in the assay with HT-29, 0.319 µM (active); in the assay with U-251, 0.0603 µM (active); in the assay on NCI-H460, 0.0308 µM (active); in the assay on EKVX, 1.12 µM (inactive); with SR, 2.74 nM (active). For the same molecule, the GI50 in the assay on HCT-15 is 748 nM; with SK-MEL-28, 1.22 µM (inactive).

Consider `COc1ccc(C(=O)C#Cc2cnc(OC)nc2OC)cc1`, for which the GI50 was 1.39 µM (inactive) in the assay with NCI-H522; 2.68 µM (inactive) in the assay with KM12; 1.89 µM (inactive) with T47D; 1.56 µM (inactive) in the assay with OVCAR-8; 1.76 µM (inactive) in the assay on HOP-92; 1.19 µM (inactive) in the assay on SN12C. In addition, the GI50 was 17 µM (inactive) with HOP-62; 1.58 µM (inactive) in the assay with MDA-N; 14.1 µM (inactive) with SK-OV-3; 571 nM (active) in the assay with SW-620; 1.63 µM (inactive) in the assay with HL-60; 147 nM (active) in the assay on LOX IMVI. Also, the GI50 in the assay with NCI-H23 is 1.48 µM (inactive); in the assay with HT-29, 1.22 µM (inactive); in the assay with U-251, 1.33 µM (inactive); in the assay on NCI-H460, 2.65 µM (inactive); with EKVX, 1.83 µM (inactive); in the assay on SR, 49.1 nM (active). For the same molecule, the GI50 is 1020 nM in the assay with HCT-15 and 1.61 µM (inactive) in the assay with SK-MEL-28.

Regarding `CC(C)[C@@H]1CC[C@@H](C)C[C@H]1OC(=O)/C=C1/C2C=CC(O2)C1C(=O)O[C@@H]1C[C@H](C)CC[C@H]1C(C)C` (stereo not given in full), the GI50 in the assay on NCI-H522 was 41.8 µM (inactive); with KM12, > 100 µM (inactive); in the assay on T47D, 45.3 µM (inactive); in the assay on OVCAR-8 it was > 100 µM (inactive); in the assay with HOP-92, > 100 µM (inactive); in the assay with SN12C it was > 100 µM (inactive). Moreover, the GI50 with HOP-62 was > 100 µM (inactive); in the assay on MDA-N, > 100 µM (inactive); in the assay with SK-OV-3 it was > 100 µM (inactive); with SW-620, > 100000 nM (inactive); in the assay with HL-60, 30.5 µM (inactive); in the assay on LOX IMVI, > 100000 nM (inactive). The GI50 with NCI-H23 is > 100 µM (inactive); in the assay with HT-29, 48.5 µM (inactive); in the assay with U-251 it was > 100 µM (inactive); with NCI-H460, 89.1 µM (inactive); in the assay on EKVX it was > 100 µM (inactive); in the assay on SR, 41700 nM (inactive). Moreover, the GI50 in the assay on HCT-15 is > 100000 nM; in the assay on SK-MEL-28, > 100 µM (inactive).

For the molecule `COc1cc(O)c(C(=O)/C=C/c2ccccc2)c(OC)c1` [FLAVOKAWAIN B], the GI50 is 2.42 µM (inactive) in the assay with NCI-H522; 3.52 µM (inactive) in the assay with KM12; 6.82 µM (inactive) with T47D; 3.64 µM (inactive) in the assay on OVCAR-8; 3.72 µM (inactive) in the assay with HOP-92; 3.29 µM (inactive) in the assay on SN12C. Further, the GI50 in the assay on HOP-62 is 12 µM (inactive); with MDA-N it was 3.78 µM (inactive); in the assay on SK-OV-3, 11.6 µM (inactive); in the assay with SW-620, 3850 nM (inactive); in the assay on HL-60, 1.21 µM (inactive); with LOX IMVI, 2290 nM (inactive). Also, the GI50 with NCI-H23 is 5.97 µM (inactive); in the assay on HT-29, 7.66 µM (inactive); with U-251, 4.6 µM (inactive); with NCI-H460, 3.54 µM (inactive); in the assay on EKVX it was 10.4 µM (inactive); in the assay with SR it was 1850 nM (inactive). Moreover, the GI50 with HCT-15 is 4510 nM; with SK-MEL-28 it was 3.34 µM (inactive).
